Source: patent publication US9259416B2, “Pyrazolone compounds useful for treatment of cerebrovascular disorders associated with ischemic stroke” (MITSUBISHI TANABE PHARMA CORPORATION, priority 2004, dated 2016)

What was measured:
[1] = tested on: rat middle cerebral artery occlusion and reperfusion model; assay: Cerebral edema in rat middle cerebral artery occlusion and reperfusion model; assay type: in vivo, Wistar rats
Experimental: After eight weeks to nine weeks old Wistar rats (220 to 260 g) were subjected to inhalation anesthesia with halothane, the inhalation anesthesia with 1% halothane (anesthesia; nitrous oxide: oxygen=7:3) was continued while fixing them in a dorsal position and maintaining their body temperature at around 37° C. In an infusion administration group and a bolus+infusion administration group, a catheter was placed in the femora vein. The right common carotid artery, external carotid artery and internal carotid artery were exposed and the common carotid artery and external carotid artery were ligated in order to occlude the middle cerebral artery. From the common carotid artery, a No. 4 nylon suture (plug) was inserted to occlude the middle cerebral artery. Three hours after occlusion of the middle cerebral artery, the plug was taken out from the common carotid artery and perfusion of the middle cerebral artery was resumed, and then the administration was started as in Table 3. Decapitation and surgical removal of the brain were performed three hours after reperfusion. After separation of the right and left cerebral cortex, the wet weight was measured. After drying at 130° C. for 24 hours, the dry weight was determined. A percentage water content was calculated in accordance with the following equation: (wet weight (g)−dry weight (g))/wet weight (g)×100. The constitution and dose of each group are shown below in Table 3. It is to be noted that to the drug administered groups other than the control group, Edaravone was administered as a drug in accordance with Table 3.

[2] = tested on: monkey middle cerebral artery occlusion; assay: Dose response test with monkey (middle cerebral artery occlusion, infarct); assay type: in vivo, croo monkey; conditions: Edaravone administered groups (0.1-0.4 mg/kg loading + 0.5-2.0 mg/kg/hr maintenance i.v.), 28 hours after occlusion
Experimental: A croo monkey (3 years to 5 years old) was subjected to […], and then its body temperature was kept at around 37° C. The middle cerebral artery at around the branch of the left internal carotid artery was exposed, and the middle cerebral artery was occluded by electrocoagulation. Then, the administration was started as in Table 6. 28 hours after occlusion (just after administration), the whole brain was removed under deep anesthesia by excess pentobarbital administration, and coronary brain sections each having a thickness of 4 mm were cut out of the forehead. The brain sections were stained with 1 w/v % 2,3,5-triphenyltetrazolium chloride, and the infarct area was measured to calculate the infarct volume.
In the drug administered groups other than the solvent group, Edaravone was used as the drug and this was administered as in Table 6.

rat serum proteins = conditions: cited from earlier work
[3] = tested on: rat middle cerebral artery occlusion; assay: Dose response test with rat (middle cerebral artery occlusion/reperfusion, infarct); assay type: in vivo, Crj:CD(SD) male rats
Experimental: Seven weeks to eight weeks old Crj:CD(SD) male rats (190 to 250 g) were subjected to anesthesia with isoflurane, and were fixed in a dorsal position with their body temperature kept at around 37° C. A catheter for drug administration was placed in the cervical vein. The right common carotid artery, external carotid artery and internal carotid artery were exposed and the common carotid artery and external carotid artery were ligated in order to occlude the middle cerebral artery. From the branch of the external carotid artery and the internal carotid artery, a silicone-coated No. 4 nylon suture (plug) was inserted to occlude the middle cerebral artery. Two hours after occlusion of the middle cerebral artery, the plug was taken out and perfusion of the middle cerebral artery was resumed, and then the administration was started as in Table 5. Decapitation and surgical removal of the brain were performed 24 hours after reperfusion. Five brain sections each having a thickness of 2 mm (from the bregma part, from 2 mm before and behind parts of the bregma, and from 4 mm before and behind parts of the bregma) were prepared. The brain sections were stained with 1 w/v % 2,3,5-triphenyltetrazolium chloride, and the infarct area was measured to calculate the infarct volume. […]

human serum proteins = conditions: cited from earlier work

CC1=NN(c2ccccc2)C(=O)C1 [Edaravone, 1-phenyl-3-methyl-2-pyrazolin-5-one]
increase in percentage water content of cortex ([1]; bolus group, 3 mg/kg i.v. immediately after reperfusion, brain removed 3 h after reperfusion): almost equal | increase in percentage water content of cortex ([1]; bolus+infusion group, 0.2 mg/kg i.v. + 1 mg/kg/hr i.v. for 2.75 hours): lowest | increase in percentage water content of cortex ([1]; infusion group, 1 mg/kg/hr i.v. for 3 hours after reperfusion): almost equal | infarct volume compared with control group [2]: small | binding ratio with serum proteins (rat serum proteins): 85.8% | infarct area ([3]; 0.1 mg/kg+0.5 mg/kg/hr i.v., P<0.05 vs physiological saline): significantly decreased | infarct volume compared with control group ([3]; Edaravone administered groups (0.05-0.2 mg/kg loading + 0.25-1.0 mg/kg/hr maintenance i.v.), 24 hours after reperfusion): small | binding ratio with serum proteins (human serum proteins): 91.9%
